Where two headings read alike, the source gives them in different places.
Columns and labels:
[1] = assay type: physicochemical; conditions: for purity of crystal by HPLC: 105° C.
Experimental: The purity of the c-di-AMP sodium salt in the crystal α obtained in Example 1 was analyzed by high performance liquid chromatography. As a result, the purity of c-di-AMP was 100%. Note that the high performance liquid chromatography was performed under the following conditions.
Column: Hydrosphere C18 (manufactured by YMC, Inc.)
Eluent: 0.1 M TEA-P (pH 6.0)+4.5% ACN
Detection method: detection at UV260 nm
The crystals obtained in the above Example 1, Example 2, Example 4, and Reference Example were allowed to stand under conditions at 105° C. Some crystals were sampled over time, and an aqueous solution was prepared therefrom. Then, the purity of each crystal was analyzed by high performance liquid chromatography. FIG. 18 and Table 6 show the results obtained.

[2] = pH 5
Experimental: The purified c-di-AMP was used to prepare a c-di-AMP aqueous solution with an OD257 of 2500 and at a pH of 5.0, 5.2, 5.4, 5.6, 5.8, 6.0, or 6.5. Each resulting c-di-AMP solution (0.2 mL) with an OD257 of 2500 was heated to 30° C. Next, 1 mL of 99.5% (w/w) ethanol was gently added. The mixture was then tightly sealed and allowed to stand overnight or for several days at 30° C. to precipitate crystals. The resulting crystals so precipitated were filtered through a membrane filter to yield wet crystals.
Dilution allowed for preparation of a c-di-AMP aqueous solution at a low concentration.

Compound | stability under severe conditions [1] | purity of crystal by HPLC ([1]; Day 0) [%] | purity of crystal by HPLC ([1]; Day 1) [%] | purity of crystal by HPLC ([1]; Day 2) [%] | purity of crystal by HPLC ([1]; Day 3) [%] | purity of crystal by HPLC ([1]; Day 4) [%] | purity of crystal by HPLC ([1]; Day 5) [%] | solubility [2] | purity of crystal by HPLC ([1]; Day 1, sodium salt) [%] | purity of crystal by HPLC ([1]; Day 2, sodium salt) [%] | purity of crystal by HPLC ([1]; Day 3, sodium salt) [%] | purity of crystal by HPLC ([1]; Day 4, sodium salt) [%] | purity of crystal by HPLC ([1]; Day 5, sodium salt) [%]
Nc1ncnc2c1ncn2[C@@H]1O[C@@H]2COP(=O)(O)O[C@H]3[C@@H](O)[C@H](n4cnc5c(N)ncnc54)O[C@@H]3COP(=O)(O)O[C@H]2[C@H]1O [Reference Example, c-di-AMP free acid, reference compound] | decreased stability | 100.00 | 91.81 | 88.82 | 86.46 | 86.31 | 85.42 | – | – | – | – | – | –
Nc1ncnc2c1ncn2[C@@H]1O[C@@H]2COP(=O)(O)O[C@H]3[C@@H](O)[C@H](n4cnc5c(N)ncnc54)O[C@@H]3COP(=O)(O)O[C@H]2[C@H]1O [c-di-AMP, Cyclic-di-AMP] | – | – | – | – | – | – | – | low | – | – | – | – | –
c-di-AMP sodium salt [Example 1] | – | 100.00 | – | – | – | – | – | – | 98.75 | 97.98 | 97.98 | 97.87 | 97.15
c-di-AMP sodium salt [Example 2] | – | 100.00 | – | – | – | – | – | – | 99.02 | 98.73 | 98.63 | 99.02 | 98.09
c-di-AMP sodium salt [Example 4] | – | 100.00 | – | – | – | – | – | – | 99.65 | 99.35 | 99.14 | 99.09 | 98.93
